{
  "source": "patent US20140004182A1",
  "about": "“METHODS FOR THE TREATMENT OF SARCOIDOSIS” (priority 2009, published 2014)",
  "key": {"[1]": {"test_system": "Phosphodiesterase 4 enzyme purified from U937 human monocytic cells", "test": "Inhibition of PDE4 (phosphodiesterase reaction with [3H]-cAMP)", "type": "biochemical", "conditions": "1 μM cAMP plus 10 nM [3H]-cAMP, 45 min at 30° C., pH 7.5", "procedure": "Phosphodiesterase 4 enzyme was purified from U937 human monocytic cells by gel filtration chromatography, and phosphodiesterase reactions were carried out as previously described. See, e.g., Muller et al., Bioorg. Med. Chem. Lett., 1998, 8(19): 2669-2674. Briefly, reactions were carried out in 96-well deep-well plates in 50 mM Tris HCl pH 7.5, 5 mM MgCl2, 1 μM cyclic adenosine monophosphate (cAMP), plus 10 nM [^3H]-cAMP for 45 min at 30° C. The reactions were terminated by boiling, treated with 1 mg/ml snake venom, and separated using AG-1X8 ion exchange resin (BioRad). Reactions consumed less than 15% of available substrate."}, "[2]": {"test_system": "sarcoidosis patients with chronic cutaneous lesions despite systemic therapy", "test": "Open label clinical study, Sarcoidosis Activity and Severity Index (SASI)", "type": "in vivo, human", "conditions": "for SASI induration score, median (range): 43 areas with induration, baseline median 2 (0-4), p<0.005, scale 0 to 4", "procedure": "An open label study of sarcoidosis patients with chronic cutaneous lesions despite systemic therapy was performed to determine the safety and efficacy of (+)-2-[1-(3-ethoxy-4-methoxyphenyl)-2-methanesulfonylethyl]-4-acetylaminoisoindolin-1,3-dione therapy. Patients were on a stable treatment regimen (corticosteroids, methotrexate (max 10 mg/week), azathioprine, hydroxychloroquine, cyclophosphamide, minocycline, doxycycline, chloroquine) for at least three months prior to study entry. Patients were assessed by a previously validated scoring system for cutaneous sarcoidosis: Sarcoidosis Activity and Severity Index (SASI). Individual scores were made for erythema, induration, and desquamation on a scale of 0 to 4. For an individual area of the body, the percentage of involvement for sarcoidosis lesions was scored on a scale from 0 to 7. After establishing a baseline SASI score, patients began treatment with (+)-2-[1-(3-ethoxy-4-methoxyphenyl)-2-methanesulfonylethyl]-4-acetylaminoisoindolin-1,3-dione 20 mg twice a day over the next 12 weeks. A SASI score was determined by the same investigator at baseline and weeks 4 and 12 of treatment.\nThirteen patients completed 16 weeks of study, including 12 weeks of active drug therapy. […] Among the 13 patients, there were 59 areas with one or more positive SASI feature during treatment. Among the 43 areas with induration, there was a significant drop in the SASI score from baseline (median 2 (0-4)) after 4 weeks (median 1 (0-3), p<0.005) and 12 weeks (median 1 (0-3), p<0.005) therapy."}},
  "data": [
    {"smiles": "CCOc1cc([C@@H](CS(C)(=O)=O)N2C(=O)c3cccc(NC(C)=O)c3C2=O)ccc1OC", "note": "[(+)-2-[1-(3-ethoxy-4-methoxyphenyl)-2-methanesulfonylethyl]-4-acetylaminoisoindolin-1,3-dione]", "values": [
      {"measurement": "IC50", "setting": "[1]", "value": 0.0735, "unit": "µM"},
      {"measurement": "change in SASI area of involvement during therapy", "setting": "[2]; 20 mg twice a day, 12 weeks", "value": "no significant change"},
      {"measurement": "change in SASI desquamation during therapy", "setting": "[2]; 20 mg twice a day, 12 weeks", "value": "no significant change"},
      {"measurement": "change in SASI erythema during therapy", "setting": "[2]; 20 mg twice a day, 12 weeks", "value": "no significant change"},
      {"measurement": "tolerability", "setting": "[2]; 20 mg twice a day, 12 weeks, 13 patients", "value": "well tolerated"},
      {"measurement": "discontinuation of drug treatment", "setting": "[2]; 13 patients, 12 weeks of active drug therapy", "value": "No patient discontinued"},
      {"measurement": "SASI induration score, median (range)", "setting": "[2]; after 4 weeks therapy, 20 mg twice a day", "value": "1 (0-3)"},
      {"measurement": "SASI induration score, median (range)", "setting": "[2]; after 12 weeks therapy, 20 mg twice a day", "value": "1 (0-3)"},
      {"measurement": "patients with dose reduced by 50% (one for nausea, the other for feeling jittery)", "setting": "[2]; of 13 patients, continued on the reduced dose", "value": "two"},
      {"measurement": "improvement in skin induration", "setting": "[2]; within 4 weeks of institution of therapy", "value": "significant improvement"}
    ]}
  ]
}
